Assays:
GST tagged PIP4KtypeIIA = target: T1, GST tagged PIP4KtypeIIA (Homo sapiens, UniProt P48426); assay: ADP-glo kinase assay PIP4K 2A (PIP4KtypeIIA inhibition assay); format: biochemical; details: Table 3; compounds listed under IC50 range headings; 10 uM ATP, 0.5 nM PIP4KIIA
T1 construct: made in house; host or cells: E. coli
T1 sequence (P48426 1-406): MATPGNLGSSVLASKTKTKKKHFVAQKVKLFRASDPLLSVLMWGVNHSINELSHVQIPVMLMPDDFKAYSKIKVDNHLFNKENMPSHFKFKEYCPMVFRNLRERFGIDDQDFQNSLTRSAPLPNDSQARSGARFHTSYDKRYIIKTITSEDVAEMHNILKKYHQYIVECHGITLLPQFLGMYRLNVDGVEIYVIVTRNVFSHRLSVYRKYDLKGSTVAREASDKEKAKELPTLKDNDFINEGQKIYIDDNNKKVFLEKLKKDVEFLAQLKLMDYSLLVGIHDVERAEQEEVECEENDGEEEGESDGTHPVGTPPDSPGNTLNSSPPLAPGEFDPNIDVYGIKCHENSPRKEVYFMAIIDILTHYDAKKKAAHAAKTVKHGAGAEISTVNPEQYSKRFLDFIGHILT
Source text: GST tagged PIP4KtypeIIA and B enzymes were overexpressed in E. Coli and purified to >80% homogeneity. Phosphatidyl inositol-5-phosphate (PI5P, Cat. #850152, Avanti Polar Lipids Inc.) was used as the lipid substrate and phosphatidyl ethanolamine (DOPE 18:1, Cat. #850725, Avanti Polar Lipids Inc.) was used as the carrier lipid for assays. Ultrapure ATP and GTP was purchased from Bellbrooke Labs. ADP Glo reagents were obtained from Promega. Transcreener FI reagent was obtained from Bellbrooke labs.
1. HEPES buffer mix: 200 mM HEPES pH 7.4, 50 mM MgCl2, 0.05% v/v triton×100
2. HNE buffer: 20 mM HEPES, pH 7.4, 100 mM NaCl, 0.5 mM EGTA
3. H:E buffer: 30 mM HEPES, pH 7.4, 1 mM EGTA
Enzyme preparation: GST-tagged PIP4KtypeIIA (5 uL, 1.43 mg/mL) was diluted (1:10) to 50 uL using HNE buffer. From the 1:10 diluted stock, a 6.4 uL aliquot was diluted further to 5 mL using HNE buffer to yield 5× enzyme stock (2.5 nM).
Lipid Preparation: In a 10 mL pyrex glass vial, lug of PI5P and lug of DOPE were suspended in 2.5 mL of HEPES buffer mix and 2.5 mL of H:E buffer. The contents were mixed and sonicated for 3 min to yield a translucent lipid stock.
Compound Preparation: Compounds were stored as 5 mM stocks in neat DMSO as room temperature in glass vials. 5 mM stocks were diluted to 2 mM and then serially diluted (3×) in neat DMSO in 96 well polypropylene plates. From the serially diluted stocks, 3 uL was delivered into 250 uL of 25% DMSO (in water) to generate 5× compound stocks. Typically, the highest compound conc. was 24 uM.
The assay volume was kept at 25 uL. To each well of the reaction plate, 10 uL of lipid stock (1:1 ratio PI5P:DOPE) was delivered. This was followed by the addition of 5 uL of compound in 25% DMSO. Then, to each well, 5 uL of 2.5 nM (5×) typeIIA enzyme was delivered. The contents were mixed well and incubated for 1 h at 27 C. After 1 h, reaction was initiated by adding 5 uL of 50 uM ATP and the contents were mixed well with a multi-channel pipetteman. The final concentration of the reagents are as follows: 50 mM HEPES, pH 7.3, 10 mM MgCl2, 20 mM NaCl, 0.01% v/v triton-X100, 5% DMSO, 10 uM ATP, 80 uM (2 ug) PI5P, 2 ug DOPE, and 0.5 nM PIP4KIIA. Typically, the highest conc. of compounds was 4.8 uM and the lowest conc. was 0.
After 1 hr, the reaction was quenched by adding 25 uL of ADP Glo reagent. The contents were incubated for 1 hr. Afterwards, 50 uL of kinase detection reagent was delivered. The contents were incubated for another hour. The luminescence was read using Molecular Devices Paradigm plate reader. […] The blanks were averaged and subtracted from all other wells. Using a calibration curve, RLU was converted to uM ADP (product). IC50 was calculated by plotting the residual activity (expressed as % No inhibitor control) vs. log [Inh. conc.]

GST tagged PIP4KtypeIIB = target: T2, GST tagged PIP4KtypeIIB (Homo sapiens, UniProt P78356); assay: Trans-FI P kinase assay PIP4K2B (PIP4KtypeIIB inhibition assay); format: biochemical; details: Table 4; compounds listed under IC50 range headings; 100 uM GTP, 5 nM PIP4KIIB; read-out: Trans-FI P kinase assays: PIP4K2B IC50
T2 construct: made in house; host or cells: E. coli
T2 sequence (P78356 1-416): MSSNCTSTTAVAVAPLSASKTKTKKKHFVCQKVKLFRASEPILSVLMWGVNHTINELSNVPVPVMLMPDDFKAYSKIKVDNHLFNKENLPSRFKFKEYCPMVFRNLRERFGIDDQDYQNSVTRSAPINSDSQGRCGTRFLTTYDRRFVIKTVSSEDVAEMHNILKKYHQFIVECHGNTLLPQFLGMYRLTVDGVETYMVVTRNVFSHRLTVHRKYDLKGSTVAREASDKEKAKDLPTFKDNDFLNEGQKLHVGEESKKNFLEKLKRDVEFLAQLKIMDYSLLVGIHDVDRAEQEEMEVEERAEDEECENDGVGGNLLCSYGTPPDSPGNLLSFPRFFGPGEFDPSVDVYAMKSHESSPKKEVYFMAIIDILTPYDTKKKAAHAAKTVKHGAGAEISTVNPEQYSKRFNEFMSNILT
Procedure, shortened: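 Transcreener FI fluorescence, converted to GDP by calibration, tracked product from 5 nM E. coli-expressed GST-PIP4KIIB acting on 80 uM PI5P (DOPE carrier) with 100 uM GTP. Compound (top 4.8 uM final, 5% DMSO) was preincubated 1 h at 27 C before the 2 h reaction; IC50 fitted from residual activity.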

[1] = target: T3, PIP4K2A (full length protein, SignalChem) (Homo sapiens, UniProt P48426); assay: Kinase Assay PIP4K2 A (Sprint); ADP-Glo biochemical assay; details: Table 2; compounds listed under IC50 range headings
T3 construct: 4 nM PIP4K2A (full length protein, SignalChem); purchased SignalChem
T3 sequence (P48426 1-406): T1 sequence (P48426 1-406)
Procedure, shortened: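 ADP-Glo luminescence detected ADP after a 1 h RT reaction started with 60 μM ATP solution. Before that, full-length PIP4K2A (4 nM in mix) with 100 μM PI(5)P diC8 was pre-incubated 15 min with compounds in MOPS buffer pH 7.2, 25 mM MgCl2, 0.005% Tween 20. IC50 derived from % inhibition relative to DMSO over 10 three-fold concentrations.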

IC50 (GST tagged PIP4KtypeIIA)	IC50 (GST tagged PIP4KtypeIIB)	IC50 [1]	SMILES
100 to 1000 nM	10 to 100 nM		CN(C)C(=O)c1ccc(-c2cc(-c3ccnc4[nH]c(C(=O)N5CC6(COC6)C5)cc34)cnc2N)nc1 [Example 147, 5′-(2-(2-oxa-6-azaspiro[3.3]heptane-6-carbonyl)-1H-pyrrolo[2,3-b]pyridin-4-yl)-2′-amino-N,N-dimethyl-[2,3′-bipyridine]-5-carboxamide]
1000 to 2500 nM	10 to 100 nM		CN(C)C(=O)c1ccc(-c2cc(-c3ccnc4[nH]c(C(=O)NC5CCNC5=O)cc34)cnc2N)nc1 (centres unmarked) [Example 149, 4-(2′-amino-5-(dimethylcarbamoyl)-[2,3′-bipyridin]-5′-yl)-N-(2-oxopyrrolidin-3-yl)-1H-pyrrolo[2,3-b]pyridine-2-carboxamide]
100 to 1000 nM	10 to 100 nM		CN(C)C(=O)c1ccc(-c2cc(-c3ccnc4[nH]c(C(=O)NCCc5ncc[nH]5)cc34)cnc2N)nc1 [Example 150, N-(2-(1H-imidazol-2-yl)ethyl)-4-(2′-amino-5-(dimethylcarbamoyl)-[2,3′-bipyridin]-5′-yl)-1H-pyrrolo[2,3-b]pyridine-2-carboxamide]
100 to 1000 nM			Cc1c(-c2ccc(N3CCCC3=O)cc2)cncc1-c1cn(C)c2ncc(C(C)O)cc12 (centres unmarked) [Example 196, 1-(4-(5-(5-(1-hydroxyethyl)-1-methyl-1H-pyrrolo[2,3-b]pyridin-3-yl)-4-methylpyridin-3-yl)phenyl)pyrrolidin-2-one]
	10 to 100 nM	1000 to 2500 nM	CC(C)Cn1cnnc1-c1ccc(-c2cncc(-c3ccnc4[nH]c(C(=O)NCCc5ccncc5)cc34)c2)cc1 [Example 396, 4-(5-(4-(4-isobutyl-4H-1,2,4-triazol-3-yl)phenyl)pyridin-3-yl)-N-(2-(pyridin-4-yl)ethyl)-1H-pyrrolo[2,3-b]pyridine-2-carboxamide]
	100 to 1000 nM	100 to 1000 nM	C[C@@H]1C[C@@H](C(C)(C)O)N(C(=O)c2cc3c(-c4cncc(-c5ccc(N6CCCC6=O)cc5)c4)ccnc3[nH]2)C1 [Example 397]

Second part, the compound before the results:

SMILES	IC50 (GST tagged PIP4KtypeIIA)	IC50 (GST tagged PIP4KtypeIIB)	IC50 [1]
Cc1c(-c2ccc(N3CCCC3=O)cc2)cncc1-c1cn(C)c2ncc([C@@H](C)O)cc12 (single isomer, unassigned) [196(R)]	100 to 1000 nM	100 to 1000 nM	
Cc1c(-c2ccc(N3CCCC3=O)cc2)cncc1-c1cn(C)c2ncc([C@H](C)O)cc12 (single isomer, unassigned) [196(S)]	100 to 1000 nM	100 to 1000 nM	
Cc1cc(N2CCCC2=O)ccc1-c1cncc(-c2cn(C)c3ncc([C@@H](C)O)cc23)c1 (single isomer, unassigned) [197(R)]	100 to 1000 nM	1000 to 2500 nM	
Cc1cc(N2CCCC2=O)ccc1-c1cncc(-c2cn(C)c3ncc([C@H](C)O)cc23)c1 (single isomer, unassigned) [197(S)]	100 to 1000 nM	1000 to 2500 nM	
CN(C)C(=O)c1ccc(-c2cc(-c3ccnc4[nH]c(C(=O)NCCN)cc34)cnc2N)nc1 [Example 133, 4-(2′-amino-5-(dimethylcarbamoyl)-[2,3′-bipyridin]-5′-yl)-N-(2-aminoethyl)-1H-pyrrolo[2,3-b]pyridine-2-carboxamide]	1000 to 2500 nM	100 to 1000 nM	
CN(C)C(=O)c1ccc(-c2cc(-c3ccnc4[nH]c(C(=O)NC5CCOCC5)cc34)cnc2N)nc1 [Example 137, 4-(2′-amino-5-(dimethylcarbamoyl)-[2,3′-bipyridin]-5′-yl)-N-(tetrahydro-2H-pyran-4-yl)-1H-pyrrolo[2,3-b]pyridine-2-carboxamide]	100 to 1000 nM	10 to 100 nM	
CN(C)C(=O)c1ccc(-c2cc(-c3ccnc4[nH]c(C(=O)N5CCCC5)cc34)cnc2N)nc1 [Example 141, 2′-amino-N,N-dimethyl-5′-(2-(pyrrolidine-1-carbonyl)-1H-pyrrolo[2,3-b]pyridin-4-yl)-[2,3′-bipyridine]-5-carboxamide]	100 to 1000 nM	10 to 100 nM	
CN(C)C(=O)c1ccc(-c2cc(-c3ccnc4[nH]c(C(=O)N5CCS(=O)(=O)CC5)cc34)cnc2N)nc1 [Example 142, 2′-amino-5′-(2-(1,1-dioxidothiomorpholine-4-carbonyl)-1H-pyrrolo[2,3-b]pyridin-4-yl)-N,N-dimethyl-[2,3′-bipyridine]-5-carboxamide]	100 to 1000 nM	100 to 1000 nM	
CN(C)C(=O)c1ccc(-c2cc(-c3ccnc4[nH]c(C(N)=O)cc34)cnc2N)nc1 [Example 143, 4-(2′-amino-5-(dimethylcarbamoyl)-[2,3′-bipyridin]-5′-yl)-1H-pyrrolo[2,3-b]pyridine-2-carboxamide]	100 to 1000 nM	10 to 100 nM	
CN(C)C(=O)c1ccc(-c2cc(-c3ccnc4[nH]c(C(=O)NCC(N)=O)cc34)cnc2N)nc1 [Example 144, N-(2-amino-2-oxoethyl)-4-(2′-amino-5-(dimethylcarbamoyl)-[2,3′-bipyridin]-5′-yl)-1H-pyrrolo[2,3-b]pyridine-2-carboxamide]	100 to 1000 nM	10 to 100 nM	
CN(C)C(=O)c1ccc(-c2cc(-c3ccnc4[nH]c(C(=O)NCC(=O)O)cc34)cnc2N)nc1 [Example 145, (4-(2′-amino-5-(dimethylcarbamoyl)-[2,3′-bipyridin]-5′-yl)-1H-pyrrolo[2,3-b]pyridine-2-carbonyl)glycine]	100 to 1000 nM	100 to 1000 nM	
CN(C)C(=O)c1ccc(-c2cc(-c3ccnc4[nH]c(C(=O)NC5COC5)cc34)cnc2N)nc1 [Example 146, 4-(2′-amino-5-(dimethylcarbamoyl)-[2,3′-bipyridin]-5′-yl)-N-(oxetan-3-yl)-1H-pyrrolo[2,3-b]pyridine-2-carboxamide]	100 to 1000 nM	10 to 100 nM	

— patent US11919902B2, “Aryl-bipyridine amine derivatives as phosphatidylinositol phosphate kinase inhibitors” (HiberCell, Inc., priority 2017, dated 2024)
